Measured values published in patent publication US7989179B2, “LXR ligand testing method” (Daiichi Sankyo Company, Limited, priority 2005, dated 2011).

Key:
[1] = tested on: THP-1 cells; assay: Cholesterol efflux assay; format: cell-based; details: compound final concentration 0.1 μM, 24 hours
Description: 3×10^5 THP-1 cells (ATCC No.: TIB-202) were disseminated in a 96-well white plate (Costar) followed by the addition of 200 nM Phorbol 12-Myristate 13-Acetate (Sigma) and culturing for 24 hours at 37° C. in a CO2 incubator. […] Following completion of culturing, 100 μl of PBS containing 0.2% bovine serum albumin (hereinafter referred to as “BSA”, (Sigma Chemical)) were added to each well to wash the cells. Next, 100 μl of RPMI 1640 containing Apolipoprotein A1 (hereinafter referred to as “ApoA1”, (Biogenesis)) at a final concentration of 10 μg/ml, or RPMI 1640 not containing ApoA1, were added to each well. […] Following completion of culturing, the plate was centrifuged for 5 minutes at 1,000 rpm and 4° C. 75 μl of medium in the form of the centrifuged supernatant were transferred to a 96-well Luma plate (Packard) and allowed to dry. […] 20 (Packard) were added to each well of the plate containing the washed cells and allowed to stand overnight, followed by measuring the radioactivity of the medium and cells with a scintillation counter (Top Count, Packard). Percent (%) efflux was calculated from the measured values using the calculation formula shown below. % efflux=(Specific radioactivity of medium(CPM)/75×100)/(Specific radioactivity of medium(CPM)+specific radioactivity of cells(CPM))×100 […]

[2] = target: T1, heterodimer comprising LXRα and RXRα (Homo sapiens, UniProt Q13133, A196R); assay: FRET assay of coactivator peptide binding to His-LXRα/FLAG-RXRα; format: biochemical
T1 construct: amino acid nos; made in house; host or cells: Escherichia coli BL21(DE3)
T1 sequence (Q13133 164-447 A196R): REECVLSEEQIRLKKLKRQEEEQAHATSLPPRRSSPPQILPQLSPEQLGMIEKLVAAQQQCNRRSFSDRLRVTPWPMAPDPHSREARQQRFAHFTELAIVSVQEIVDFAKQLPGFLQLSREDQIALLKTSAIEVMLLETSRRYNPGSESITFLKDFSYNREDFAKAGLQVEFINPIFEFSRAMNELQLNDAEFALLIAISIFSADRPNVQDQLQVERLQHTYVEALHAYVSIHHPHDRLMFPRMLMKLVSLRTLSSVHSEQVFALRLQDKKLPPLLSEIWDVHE
T1 sequence (P19793 201-462 partner limits assumed): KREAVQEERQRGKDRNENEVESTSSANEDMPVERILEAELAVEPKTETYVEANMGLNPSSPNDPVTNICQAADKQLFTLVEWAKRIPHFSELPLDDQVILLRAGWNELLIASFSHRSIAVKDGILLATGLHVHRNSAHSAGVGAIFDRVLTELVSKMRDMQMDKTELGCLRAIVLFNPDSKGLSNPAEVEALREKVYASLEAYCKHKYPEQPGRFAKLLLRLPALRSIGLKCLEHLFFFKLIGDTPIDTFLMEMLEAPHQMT
Description: 8 μl of LXRα reaction solution (0.05 μl of 4 μM His-LXRα and FLAG-RXRα mixed solution, 1.00 μl of 10×PBS (Sigma Chemical), 2.50 μl of 2 M KF (Wako Pure Chemical Industries), 0.10 μl of 10% NP40 (Sigma Chemical), 0.15 μl of anti-His tag antibody (CIS Bio International) and 4.20 μl of H2O) containing the His-LXRα and FLAG-RXRα prepared according to Example 1 were placed in a 384-well assay plate (Greiner Bio-One).
Next, 2 μl of a solution of Compound A (N-(2,2,2-trifluoroethyl)-N-{4-[2,2,2-trifluoro-1-hydroxy-1-(trifluoromethyl)ethyl]phenyl}benzene sulfonamide (Compound 12 described on page 55 of International Publication WO2000/054759) or Compound B (3-chloro-4-(3-(2-propyl-3-trifluoromethyl-6-benz-[4,5]-isooxazoloxy)propylthio)phenylacetic acid (a compound described in Example 20 on page 70 of International Publication WO1997/028137), dissolved to a concentration of 10 μM in dimethyl sulfoxide (hereinafter referred to as “DMSO”), were added to each well of a 384-well assay plate followed by incubating for 1 hour at room temperature.
Next, 10 μl of peptide reaction solution (1.00 μl of 5 μM peptide, 1.00 μl of 10×PBS, 2.50 μl of 2 M KF, 0.10 μl of 10% NP40, 0.20 μl of streptavidin (CIS Bio International) and 5.20 μl of H2O) were added to each well of the 384-well assay plate and incubated for 17 hours at 4° C. The peptide added here was comprising of any of the amino acid sequences of (a) to (g) below, and the amino acid of the N-terminal was biotinylated.
Following completion of incubation, the assay plate was subjected to excitation light at 337 nm using a fluorescent plate reader (Envision, Perkin-Elmer), and fluorescent absorbance at 665 nm and 620 nm was measured to determine the binding capacity between the protein and the peptide.
The value obtained by multiplying 1000 by the value resulting from dividing the measured value at 665 nm when applying excitation light at 337 nm by the measured value at 620 nm was determined. This value was then divided by the value determined by the same method when only DMSO was added without adding LXR ligand (Compound A or Compound B), and this value was then multiplied by 100 and indicated as the percentage relative to the control (% of control) as shown in Table 6.
The value for % of control determined here is the value, represented by a percentage, that indicates the ratio of the increase in the amount of coactivator bound to LXRα that results from adding LXR ligand, and the larger this value, the larger the amount of coactivator that binds to LXRα.
(1) According to the same method as Example 2) (using the following peptides (h) to (m), instead of the peptides (a) to (g) in Example 2), the amount of coactivator bound to the heterodimer LXRα and RXRα were determined.

[3] = target: T2, heterodimer comprising LXRβ and RXRα (Homo sapiens, UniProt P55055, DUP175-175); assay: FRET assay of coactivator peptide binding to His-LXRβ/FLAG-RXRα; format: biochemical
T2 construct: made in house; host or cells: Escherichia coli BL21(DE3)
T2 sequence (P55055 with tags, fused parts or gaps DUP175-175): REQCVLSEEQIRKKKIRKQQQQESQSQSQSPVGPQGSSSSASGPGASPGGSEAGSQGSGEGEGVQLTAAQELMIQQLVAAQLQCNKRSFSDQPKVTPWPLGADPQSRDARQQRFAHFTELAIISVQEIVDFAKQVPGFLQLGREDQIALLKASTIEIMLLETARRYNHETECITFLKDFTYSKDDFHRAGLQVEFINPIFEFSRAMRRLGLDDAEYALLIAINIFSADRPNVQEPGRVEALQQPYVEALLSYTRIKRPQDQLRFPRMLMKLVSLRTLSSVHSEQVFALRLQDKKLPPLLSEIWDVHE
T2 sequence (P19793 201-462 partner limits assumed): T1 sequence (P19793 201-462 partner limits assumed)
Description: 8 μl of LXRβ reaction solution (0.025 μl of 8 μM His-LXRβ and FLAG-RXRα mixed solution, 1.00 μl of 10×PBS, 2.50 μl of 2 M KF, 0.10 μl of 10% NP40, 0.15 μl of anti-His tag antibody and 4.23 μl of H2O) containing the His-LXRβ and FLAG-RXRα prepared according to Example 1 were placed in a 384-well assay plate (Greiner Bio-One) and measured according to the same method as Example 2 to determine the % of control (Table 6). There was no significant difference observed in the resulting values between Compound A and Compound B.
(2) […]: According to the same method in Example 3) (using the above peptides (h) to (m), instead of peptides (a) to (g) in Example 3), the amount of the coactivator bound to the heterodimer comprising LXRβ and RXRα were determined. There was no significant difference observed in the resulting values between Compound A and Compound B (Table 7).

[4] = Cynomolgus monkey consecutive daily administration study; format: in vivo, cynomolgus monkeys; details: for Relative value of LDL Cholesterol in Plasma (% of control group) / Relative value of TG in Plasma (% of control group): male cynomolgus monkeys, force fed, PG/Tween
Description: Five to seven year old, male cynomolgus monkeys in groups of 5 animals each were force fed only an administration base (Propylene glycol (Wako Pure Chemical Industries)/Tween 80 (Kao) (volume ratio: 4/1, hereinafter referred to as “PG/Tween”)) (hereinafter referred to as “the control group”), or Compound A or Compound B dissolved in PG/Tween in an amount of 3 mg/kg or 10 mg/kg once a day for 7 days between the hours of 8:00 and 10:00 AM. After fasting for 16 hours starting at 5:00 PM on the 7th day of administration, 1 mL of blood was collected from the cephalic vein with a heparinized syringe followed by centrifuging for 15 minutes at 4° C. and 5000 rpm to obtain plasma.
The levels of LDL cholesterol and triglycerides in the plasma were measured with an auto analyzer (Hitachi Model 7170) followed by calculation of the % of control group (Tables 8 and 9).

[5] = peptide ASC2 NR-1, 2 μl of 10 μM compound solution in DMSO
[6] = peptide ASC2 NR-2, 2 μl of 10 μM compound solution in DMSO
[7] = peptide PGC-1α, 2 μl of 10 μM compound solution in DMSO
[8] = peptide SRC1-2, 2 μl of 10 μM compound solution in DMSO
[9] = peptide SRC1-3, 2 μl of 10 μM compound solution in DMSO
[10] = peptide SRC1-4, 2 μl of 10 μM compound solution in DMSO
[11] = peptide TIF2, 2 μl of 10 μM compound solution in DMSO

- LXRα (% of control) ([2]; peptide ACTR NRB3, same method as Example 2): 167 % of control
- LXRα (% of control) [2, 5]: 155.8 % of control
- LXRα (% of control) [2, 6]: 254.0 % of control
- LXRα (% of control) ([2]; peptide DAX1, same method as Example 2): 158 % of control
- LXRα (% of control) ([2]; peptide PERC NRB2, same method as Example 2): 127 % of control
- LXRα (% of control) [2, 7]: 361.7 % of control
- LXRα (% of control) ([2]; peptide PNRC, same method as Example 2): 140 % of control
- LXRα (% of control) [2, 8]: 267.0 % of control
- LXRα (% of control) [2, 9]: 181.3 % of control
- LXRα (% of control) [2, 10]: 207.3 % of control
- LXRα (% of control) [2, 11]: 266.7 % of control
- LXRα (% of control) ([2]; peptide TIF2 NRB2, same method as Example 2): 268 % of control
- LXRα (% of control) ([2]; peptide TRAP220, same method as Example 2): 131 % of control
- LXRβ (% of control) ([3]; peptide ACTR NRB3, same method as Example 3): 129 % of control
- LXRβ (% of control) [3, 5]: 114.5 % of control
- LXRβ (% of control) [3, 6]: 120.4 % of control
- LXRβ (% of control) ([3]; peptide DAX1, same method as Example 3): 116 % of control
- LXRβ (% of control) ([3]; peptide PERC NRB2, same method as Example 3): 104 % of control
- LXRβ (% of control) [3, 7]: 191.0 % of control
- LXRβ (% of control) ([3]; peptide PNRC, same method as Example 3): 109 % of control
- LXRβ (% of control) [3, 8]: 120.4 % of control
- LXRβ (% of control) [3, 9]: 110.6 % of control
- LXRβ (% of control) [3, 10]: 154.6 % of control
- LXRβ (% of control) [3, 11]: 107.9 % of control
- LXRβ (% of control) ([3]; peptide TIF2 NRB2, same method as Example 3): 125 % of control
- LXRβ (% of control) ([3]; peptide TRAP220, same method as Example 3): 111 % of control
- Relative value of LDL Cholesterol in Plasma (% of control group) ([4]; 3 mg/kg once a day for 7 days): 137%
- Relative value of TG in Plasma (% of control group) ([4]; 3 mg/kg once a day for 7 days): 429%
- Relative value of LDL Cholesterol in Plasma (% of control group) ([4]; 10 mg/kg once a day for 7 days): 207%
- Relative value of TG in Plasma (% of control group) ([4]; 10 mg/kg once a day for 7 days): 661%
Compound: O=S(=O)(c1ccccc1)N(CC(F)(F)F)c1ccc(C(O)(C(F)(F)F)C(F)(F)F)cc1 [Compound A, N-(2,2,2-trifluoroethyl)-N-{4-[2,2,2-trifluoro-1-hydroxy-1-(trifluoromethyl)ethyl]phenyl}benzenesulfonamide]
- relative cholesterol efflux activity (% efflux, Compound A at 1 μM = 100) [1]: 86%
- effect on amount of coactivator bound to LXRα (result in words) ([2]; Example 2, peptides (a) to (g)): increases the amount of coactivator bound to LXRα
- effect on plasma LDL cholesterol and triglyceride concentration (result in words) ([4]; cynomolgus monkeys, 7 days administration): increase LDL cholesterol concentration and triglyceride concentration in the plasma
